From patent US20230357099A1, “PYRAZOLO [3,4-B] PYRIDINE-4-CARBOXAMIDE NITRIFICATION INHIBITOR” (EUROCHEM ANTWERPTEN, priority 2020, published 2023)

What was measured:
[1] = test system: agricultural soils (Moorslede and Sint-Laureins); experiment: Greenhouse gas measurements from fertilized soil
Protocol: Two agricultural soils coming from fields in Moorslede and Sint-Laureins were used. Screw top vials were filled with 10 g soil. Vials were sealed with Parafilm and preincubated at 21° C. in the dark for 5 days. After pre-incubation, vials were ventilated using a fan. Then 100 µL of a 1 mM compound solution (10 % DMSO) was added, immediately followed by the addition of 100 µL 200 mM NH4Cl. Vials were closed gastight and 5 mL synthetic air was added to the headspace using a plastic syringe, followed by the transfer of 5 mL headspace to an evacuated 3 mL exetainer. Vials were incubated at 21° C. in the dark and background NO concentration was noted. At each sampling timepoint, 5 mL synthetic air was added again to the headspace using a plastic syringe, again followed by the transfer of 5 mL headspace to an evacuated 3 mL exetainer. Vials were ventilated and closed again, and new gas samples were transferred to exetainers like before. N2O in the exetainers were measured via gas chromatography (GC-14 B (Schimadzu) equipped with Haysep Q columns (same spec) and an ECD detector, He at c.a. 20 mL min, 70° C.). The CO2 and CH4 concentration in the 3 mL exetainer vials was measured using a GC (Trace-GC, Interscience) equipped with Haysep Q columns (80-100, ⅛″ divided in 2 part 0.25 and 2.0 m connected with a 6 port valve to allow backflush of water vapor) and a FID (CH4) and TCD (CO2). Carrier gas was He c.a. 20 mL/min kept at 90° C. NO concentration was measured directly by connecting a chemiluminescence NO detector (CLD 77 AM, eco physics) directly to the headspace using a needle.

agricultural soils = experiment: In soil nitrification inhibition assay; conditions: soil; for inhibition at 50 µM: 50 µM of each compound; for inhibition at 100 µM: 100 µM of each compound
Protocol: Top layer (0 to 10 cm) soil samples were collected from different fields in Belgium (Merelbeke, Sint-Laureins and Moorslede). Vegetation was removed and samples were taken from different plots. All soil samples were mixed and sieved (mesh size 2.8 mm) to filter large debris and homogenize soil. The soil was stored at 5° C. in plastic containers covered with Saran foil to prevent changes in microbial community composition and to maintain the original soil water content.
Soil water content was determined by drying 20 g soil for ≥ 48 h in a 60° C. oven and measuring weight before and after drying. Based on the soil water content (± 20%), compound solutions were prepared so that addition of 200 µl compound and 200 µl NH4Cl solution would result in a final compound concentration of 50 µM (unless otherwise stated) and a final NH4+ concentration of 10 mM. Per treatment, 5 small pots were filled with 20 g soil. Next, the soil was treated first with the respective compound solution and then with the NH4Cl solution. Per tray, positive (50 µM DMP) and negative controls (DMSO) were included. […] Demineralized water was added to the soil every 2 to 3 days to a soil weight of 20 g. In the end, each sample of 20 g soil was dissolved in 100 ml 1 M KCI and shaken for 1 hour, followed by filtration through Whatmann® paper. The filtrate was used to measure pH, NH4+ and NO3— concentrations. The nitrification percentage was calculated as the ratio of the consumed ammonium in treated soil versus the consumed ammonium in non-treated soil; the nitrification inhibition percentage was calculated as ‘100% - the nitrification percentage’.

## CC(C)c1cc(C(=O)N2CCSCC2)c2cnn(C(C)C)c2n1 [Example 2]
[1]; Moorslede soil
  N2O emissions compared to the DMSO control (in words): strongly reduced the emissions
  Cumulative emission at indicated timepoint [ppb], N2O, 4 h: 119 ppb
  Cumulative emission at indicated timepoint [ppb], N2O, 24 h: 834 ppb
  Cumulative emission at indicated timepoint [ppb], N2O, 48 h: 1616 ppb
  Cumulative emission at indicated timepoint [ppb], N2O, 72 h: 1875 ppb
  Cumulative emission at indicated timepoint [ppb], N2O, 99 h: 1875 ppb
  Cumulative emission at indicated timepoint [ppb], NO, 4 h: 256 ppb
  Cumulative emission at indicated timepoint [ppb], NO, 24 h: 611 ppb
  Cumulative emission at indicated timepoint [ppb], NO, 48 h: 1020 ppb
  Cumulative emission at indicated timepoint [ppb], NO, 72 h: 1189 ppb
  Cumulative emission at indicated timepoint [ppb], NO, 99 h: 1183 ppb
[1]; Sint-Laureins soil
  NO emissions compared to the DMSO or DMP control (in words): reduce NO emissions
  Cumulative emission at indicated timepoint [ppb], N2O, 4 h: 33 ppb
  Cumulative emission at indicated timepoint [ppb], N2O, 24 h: 498 ppb
  Cumulative emission at indicated timepoint [ppb], N2O, 48 h: 1074 ppb
  Cumulative emission at indicated timepoint [ppb], N2O, 72 h: 1562 ppb
  Cumulative emission at indicated timepoint [ppb], N2O, 99 h: 1703 ppb
  Cumulative emission at indicated timepoint [ppb], NO, 4 h: 81 ppb
  Cumulative emission at indicated timepoint [ppb], NO, 24 h: 201 ppb
  Cumulative emission at indicated timepoint [ppb], NO, 48 h: 371 ppb
  Cumulative emission at indicated timepoint [ppb], NO, 72 h: 547 ppb
  Cumulative emission at indicated timepoint [ppb], NO, 99 h: 600 ppb
Agricultural soils; 72 h, Soil 2, 3 days
  inhibition at 50 µM: 4%
Agricultural soils; 72 h, Soil 3, 3 days
  inhibition at 50 µM: 5%
Agricultural soils; 168 h, Soil 1, 7 days
  inhibition at 50 µM: 0%
Agricultural soils; 168 h, Soil 2, 7 days
  inhibition at 50 µM: 15%
Agricultural soils; 168 h, Soil 2, 7 days, 6 inhibitors alone and combined with Example 2
  inhibition at 100 µM: 0%
Agricultural soils; 168 h, Soil 2, 7 days, double and triple combinations
  inhibition at 100 µM: 0%
Agricultural soils; 168 h, Soil 3, 7 days
  inhibition at 50 µM: 0%
